Two compounds from ChEMBL document CHEMBL4507268 (2021) can be followed below.

One assay has as its system BT-474. Nature of the assay: Proliferation assay: BT-474 (breast cancer). Type of assay: functional, cell-based. The settings on record: Homo sapiens.
For assay [1], the target named is MAP/microtubule affinity-regulating kinase 3 (Homo sapiens) (UniProt P27448). Particulars: Compound concentration 1000.0 nM; call rule not given here.
Assay [2] concerns Receptor-type tyrosine-protein kinase FLT3 (Homo sapiens), P36888 [D835V]. Particulars: Compound concentration 1000.0 nM.
The subject of assay [3] is Tyrosine-protein kinase ABL1 (Homo sapiens), P00519 [T315I]. Particulars: Compound concentration 1000.0 nM.
Assay [4] deals with Receptor tyrosine-protein kinase erbB-3 (Homo sapiens) (UniProt P21860). Particulars: Compound concentration 1000.0 nM.
Assay [5] deals with Mitogen-activated protein kinase kinase kinase 15 (Homo sapiens) (UniProt Q6ZN16). Particulars: Compound concentration 1000.0 nM.
Assay [6] addresses 3-phosphoinositide-dependent protein kinase 1 (Homo sapiens) (UniProt O15530). The settings on record: Compound concentration 1000.0 nM.
Assay [7] concerns the target Phosphatidylinositol 4-phosphate 5-kinase type-1 gamma (Homo sapiens) (UniProt O60331). The settings on record: Compound concentration 1000.0 nM.
Assay [8] concerns the target Phosphatidylinositol 3-kinase catalytic subunit type 3 (Homo sapiens) (UniProt Q8NEB9). Particulars: Compound concentration 1000.0 nM.
Assay [9] deals with Platelet-derived growth factor receptor alpha (Homo sapiens) (UniProt P16234). Particulars: Compound concentration 1000.0 nM.
Chain of Platelet-derived growth factor receptor alpha (Homo sapiens) (P16234 whole entry): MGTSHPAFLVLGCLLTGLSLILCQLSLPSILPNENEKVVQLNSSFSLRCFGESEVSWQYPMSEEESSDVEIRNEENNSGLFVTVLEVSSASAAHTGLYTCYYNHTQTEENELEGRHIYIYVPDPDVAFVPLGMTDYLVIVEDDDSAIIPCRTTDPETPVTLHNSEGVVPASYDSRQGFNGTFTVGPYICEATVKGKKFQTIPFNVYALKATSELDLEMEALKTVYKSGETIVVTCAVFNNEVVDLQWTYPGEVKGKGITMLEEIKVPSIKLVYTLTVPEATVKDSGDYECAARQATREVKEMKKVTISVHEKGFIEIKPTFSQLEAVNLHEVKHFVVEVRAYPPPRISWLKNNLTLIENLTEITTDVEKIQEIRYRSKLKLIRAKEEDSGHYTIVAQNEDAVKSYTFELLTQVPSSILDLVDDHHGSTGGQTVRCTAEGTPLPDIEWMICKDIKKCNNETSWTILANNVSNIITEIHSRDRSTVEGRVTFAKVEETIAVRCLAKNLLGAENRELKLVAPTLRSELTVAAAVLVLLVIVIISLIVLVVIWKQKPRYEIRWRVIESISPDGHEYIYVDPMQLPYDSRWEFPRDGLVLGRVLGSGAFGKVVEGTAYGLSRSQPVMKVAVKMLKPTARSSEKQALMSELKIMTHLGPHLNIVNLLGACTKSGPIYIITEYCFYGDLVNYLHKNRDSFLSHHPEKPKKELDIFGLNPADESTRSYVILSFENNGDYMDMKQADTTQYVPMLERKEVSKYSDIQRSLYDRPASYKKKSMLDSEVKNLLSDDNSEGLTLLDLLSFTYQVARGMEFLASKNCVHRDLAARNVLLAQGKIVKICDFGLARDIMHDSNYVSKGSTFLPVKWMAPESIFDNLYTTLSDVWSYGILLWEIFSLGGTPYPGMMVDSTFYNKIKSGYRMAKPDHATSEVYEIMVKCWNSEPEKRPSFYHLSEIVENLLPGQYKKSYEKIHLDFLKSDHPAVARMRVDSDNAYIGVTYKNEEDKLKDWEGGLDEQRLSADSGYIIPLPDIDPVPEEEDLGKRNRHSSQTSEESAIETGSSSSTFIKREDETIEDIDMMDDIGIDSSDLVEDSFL
In assay [10] the target is Hepatocyte growth factor receptor (Homo sapiens) (UniProt P08581). Particulars: Compound concentration 1000.0 nM.
The test system of assay [11] is Tyrosine-protein kinase ABL1 (Homo sapiens), P00519 [Q252H]. Particulars: Compound concentration 1000.0 nM.
Assay [12] addresses T1, Ephrin type-B receptor 4 (Homo sapiens) (UniProt P54760).
T1 sequence (whole entry): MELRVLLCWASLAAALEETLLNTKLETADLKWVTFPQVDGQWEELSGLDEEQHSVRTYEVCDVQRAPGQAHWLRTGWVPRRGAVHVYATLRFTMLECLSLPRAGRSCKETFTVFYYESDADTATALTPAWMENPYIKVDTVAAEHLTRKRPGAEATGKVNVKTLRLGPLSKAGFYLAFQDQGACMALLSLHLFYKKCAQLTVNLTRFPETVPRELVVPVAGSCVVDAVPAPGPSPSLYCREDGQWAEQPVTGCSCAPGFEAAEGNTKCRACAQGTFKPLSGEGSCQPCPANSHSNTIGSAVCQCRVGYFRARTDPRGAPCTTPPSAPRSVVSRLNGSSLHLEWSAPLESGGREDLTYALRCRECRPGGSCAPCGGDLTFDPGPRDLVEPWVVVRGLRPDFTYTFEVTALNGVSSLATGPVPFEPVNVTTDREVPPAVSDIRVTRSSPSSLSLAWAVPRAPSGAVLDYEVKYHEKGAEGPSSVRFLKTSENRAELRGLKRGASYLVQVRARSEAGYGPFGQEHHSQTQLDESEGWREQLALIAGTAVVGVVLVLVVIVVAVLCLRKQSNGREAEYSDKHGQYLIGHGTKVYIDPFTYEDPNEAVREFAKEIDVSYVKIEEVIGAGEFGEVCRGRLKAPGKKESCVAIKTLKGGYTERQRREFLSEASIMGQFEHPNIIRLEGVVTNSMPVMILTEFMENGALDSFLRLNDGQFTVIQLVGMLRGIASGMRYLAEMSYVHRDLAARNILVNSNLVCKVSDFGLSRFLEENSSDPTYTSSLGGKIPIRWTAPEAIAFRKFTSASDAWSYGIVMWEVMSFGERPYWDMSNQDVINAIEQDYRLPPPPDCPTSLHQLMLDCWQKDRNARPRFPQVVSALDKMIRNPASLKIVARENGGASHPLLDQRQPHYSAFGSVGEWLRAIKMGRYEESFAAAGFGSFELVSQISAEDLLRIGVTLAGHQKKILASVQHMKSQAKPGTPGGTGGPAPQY
The settings on record: Compound concentration 1000.0 nM.

In assay [13] the target is T2, Bone morphogenetic protein receptor type-2 (Homo sapiens) (UniProt Q13873).
T2 sequence (whole entry): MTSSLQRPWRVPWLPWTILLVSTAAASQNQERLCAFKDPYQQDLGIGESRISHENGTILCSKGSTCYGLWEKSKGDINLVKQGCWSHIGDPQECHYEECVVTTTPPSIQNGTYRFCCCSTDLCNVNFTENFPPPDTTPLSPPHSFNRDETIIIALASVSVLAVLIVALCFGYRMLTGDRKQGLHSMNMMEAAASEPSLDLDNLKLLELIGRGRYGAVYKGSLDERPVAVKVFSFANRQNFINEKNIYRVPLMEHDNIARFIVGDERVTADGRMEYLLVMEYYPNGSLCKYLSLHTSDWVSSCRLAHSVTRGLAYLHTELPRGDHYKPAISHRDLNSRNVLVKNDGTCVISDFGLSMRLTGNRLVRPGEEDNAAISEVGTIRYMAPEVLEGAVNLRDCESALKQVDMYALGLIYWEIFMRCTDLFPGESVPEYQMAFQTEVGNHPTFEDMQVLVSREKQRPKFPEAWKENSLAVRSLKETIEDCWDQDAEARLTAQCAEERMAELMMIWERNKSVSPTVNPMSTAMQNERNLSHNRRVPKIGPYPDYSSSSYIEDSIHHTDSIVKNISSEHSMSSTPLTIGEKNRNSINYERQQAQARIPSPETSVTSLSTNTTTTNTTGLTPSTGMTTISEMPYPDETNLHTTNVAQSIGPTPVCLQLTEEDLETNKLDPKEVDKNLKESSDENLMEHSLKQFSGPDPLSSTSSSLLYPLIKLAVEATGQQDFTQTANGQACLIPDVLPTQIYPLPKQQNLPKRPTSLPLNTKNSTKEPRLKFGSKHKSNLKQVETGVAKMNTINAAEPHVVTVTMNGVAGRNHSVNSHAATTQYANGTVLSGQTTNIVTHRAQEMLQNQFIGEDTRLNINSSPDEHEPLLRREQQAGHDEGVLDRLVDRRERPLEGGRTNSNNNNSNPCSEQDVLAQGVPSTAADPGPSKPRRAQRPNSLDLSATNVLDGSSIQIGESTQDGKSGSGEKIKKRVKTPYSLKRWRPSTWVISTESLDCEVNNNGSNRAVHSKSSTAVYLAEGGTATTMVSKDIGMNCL
The settings on record: Compound concentration 1000.0 nM.

Assay [14] has as its target TRAF2 and NCK-interacting protein kinase (Homo sapiens) (UniProt Q9UKE5). The settings on record: Compound concentration 1000.0 nM.
The target of assay [15] is Proto-oncogene tyrosine-protein kinase receptor Ret (Homo sapiens) (UniProt P07949). Particulars: Compound concentration 1000.0 nM.
Chain of Proto-oncogene tyrosine-protein kinase receptor Ret (Homo sapiens) (P07949 whole entry): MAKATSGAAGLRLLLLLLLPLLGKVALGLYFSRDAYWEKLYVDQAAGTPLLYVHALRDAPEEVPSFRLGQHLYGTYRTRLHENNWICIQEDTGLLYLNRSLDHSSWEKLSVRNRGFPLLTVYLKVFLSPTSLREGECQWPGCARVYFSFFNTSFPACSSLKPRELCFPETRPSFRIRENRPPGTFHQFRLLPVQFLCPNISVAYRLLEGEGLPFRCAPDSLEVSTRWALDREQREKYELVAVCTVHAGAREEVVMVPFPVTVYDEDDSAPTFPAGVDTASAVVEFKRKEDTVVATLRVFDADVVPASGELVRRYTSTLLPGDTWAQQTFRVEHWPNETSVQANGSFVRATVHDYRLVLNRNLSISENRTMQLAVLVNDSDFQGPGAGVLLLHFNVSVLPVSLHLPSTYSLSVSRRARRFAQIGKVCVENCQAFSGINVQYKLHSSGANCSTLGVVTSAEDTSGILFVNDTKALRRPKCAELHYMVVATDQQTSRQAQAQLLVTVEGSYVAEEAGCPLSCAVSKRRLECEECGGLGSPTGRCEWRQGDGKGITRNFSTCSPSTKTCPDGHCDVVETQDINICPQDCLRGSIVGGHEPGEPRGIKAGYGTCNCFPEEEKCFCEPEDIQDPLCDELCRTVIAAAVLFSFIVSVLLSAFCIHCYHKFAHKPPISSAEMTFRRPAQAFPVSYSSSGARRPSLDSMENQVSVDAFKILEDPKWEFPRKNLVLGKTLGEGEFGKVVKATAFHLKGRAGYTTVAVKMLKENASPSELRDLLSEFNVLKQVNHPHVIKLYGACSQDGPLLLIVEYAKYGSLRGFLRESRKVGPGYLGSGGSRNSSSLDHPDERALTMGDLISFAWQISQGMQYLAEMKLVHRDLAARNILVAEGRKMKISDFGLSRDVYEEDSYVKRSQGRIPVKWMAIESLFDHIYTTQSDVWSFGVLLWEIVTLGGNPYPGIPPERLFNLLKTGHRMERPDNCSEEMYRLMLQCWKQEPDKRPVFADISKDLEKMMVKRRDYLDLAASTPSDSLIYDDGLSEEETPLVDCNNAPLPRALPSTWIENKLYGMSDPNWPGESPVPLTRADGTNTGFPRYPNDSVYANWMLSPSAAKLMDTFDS

Chain of Phosphatidylinositol 4-phosphate 5-kinase type-1 gamma (Homo sapiens) (O60331 whole entry): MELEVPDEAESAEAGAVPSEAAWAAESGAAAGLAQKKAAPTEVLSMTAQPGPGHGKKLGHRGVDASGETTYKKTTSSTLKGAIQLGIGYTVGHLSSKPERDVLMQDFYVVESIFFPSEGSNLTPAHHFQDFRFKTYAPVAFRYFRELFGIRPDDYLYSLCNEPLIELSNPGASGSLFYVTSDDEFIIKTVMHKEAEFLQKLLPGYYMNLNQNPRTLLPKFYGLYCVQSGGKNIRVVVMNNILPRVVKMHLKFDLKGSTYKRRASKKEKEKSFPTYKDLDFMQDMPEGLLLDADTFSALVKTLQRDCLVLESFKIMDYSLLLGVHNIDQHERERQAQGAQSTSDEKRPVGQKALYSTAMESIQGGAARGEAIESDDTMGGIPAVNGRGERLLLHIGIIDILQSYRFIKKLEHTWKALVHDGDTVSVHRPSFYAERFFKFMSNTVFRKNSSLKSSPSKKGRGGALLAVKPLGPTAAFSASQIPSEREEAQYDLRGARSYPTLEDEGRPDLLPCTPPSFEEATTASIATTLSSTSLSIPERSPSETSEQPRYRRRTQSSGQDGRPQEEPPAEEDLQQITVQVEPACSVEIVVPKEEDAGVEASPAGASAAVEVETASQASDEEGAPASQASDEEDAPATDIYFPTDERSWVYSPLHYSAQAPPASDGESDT
Chain of Phosphatidylinositol 3-kinase catalytic subunit type 3 (Homo sapiens) (Q8NEB9 whole entry): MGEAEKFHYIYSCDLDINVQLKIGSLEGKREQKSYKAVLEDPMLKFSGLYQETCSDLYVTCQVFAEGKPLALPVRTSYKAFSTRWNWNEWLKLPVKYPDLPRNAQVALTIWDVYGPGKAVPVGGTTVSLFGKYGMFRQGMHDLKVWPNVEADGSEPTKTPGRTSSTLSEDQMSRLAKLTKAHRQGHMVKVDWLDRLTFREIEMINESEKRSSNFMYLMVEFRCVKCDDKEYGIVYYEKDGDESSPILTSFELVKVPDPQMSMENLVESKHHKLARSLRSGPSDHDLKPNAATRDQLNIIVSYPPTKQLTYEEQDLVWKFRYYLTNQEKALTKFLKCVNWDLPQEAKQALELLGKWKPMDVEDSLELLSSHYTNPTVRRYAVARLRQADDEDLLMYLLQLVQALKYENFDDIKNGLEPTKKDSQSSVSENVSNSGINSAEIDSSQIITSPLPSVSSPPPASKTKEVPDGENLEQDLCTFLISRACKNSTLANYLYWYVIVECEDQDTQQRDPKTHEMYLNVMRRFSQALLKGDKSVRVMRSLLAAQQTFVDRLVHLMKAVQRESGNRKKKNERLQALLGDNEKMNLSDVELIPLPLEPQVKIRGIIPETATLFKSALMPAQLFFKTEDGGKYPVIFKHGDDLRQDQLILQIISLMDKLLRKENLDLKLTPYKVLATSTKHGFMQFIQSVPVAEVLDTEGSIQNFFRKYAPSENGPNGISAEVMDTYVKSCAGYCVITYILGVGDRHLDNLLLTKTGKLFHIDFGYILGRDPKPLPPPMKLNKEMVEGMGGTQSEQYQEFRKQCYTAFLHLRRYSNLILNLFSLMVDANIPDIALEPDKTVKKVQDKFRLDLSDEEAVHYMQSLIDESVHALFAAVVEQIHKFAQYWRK
Chain of TRAF2 and NCK-interacting protein kinase (Homo sapiens) (Q9UKE5 whole entry, looked up): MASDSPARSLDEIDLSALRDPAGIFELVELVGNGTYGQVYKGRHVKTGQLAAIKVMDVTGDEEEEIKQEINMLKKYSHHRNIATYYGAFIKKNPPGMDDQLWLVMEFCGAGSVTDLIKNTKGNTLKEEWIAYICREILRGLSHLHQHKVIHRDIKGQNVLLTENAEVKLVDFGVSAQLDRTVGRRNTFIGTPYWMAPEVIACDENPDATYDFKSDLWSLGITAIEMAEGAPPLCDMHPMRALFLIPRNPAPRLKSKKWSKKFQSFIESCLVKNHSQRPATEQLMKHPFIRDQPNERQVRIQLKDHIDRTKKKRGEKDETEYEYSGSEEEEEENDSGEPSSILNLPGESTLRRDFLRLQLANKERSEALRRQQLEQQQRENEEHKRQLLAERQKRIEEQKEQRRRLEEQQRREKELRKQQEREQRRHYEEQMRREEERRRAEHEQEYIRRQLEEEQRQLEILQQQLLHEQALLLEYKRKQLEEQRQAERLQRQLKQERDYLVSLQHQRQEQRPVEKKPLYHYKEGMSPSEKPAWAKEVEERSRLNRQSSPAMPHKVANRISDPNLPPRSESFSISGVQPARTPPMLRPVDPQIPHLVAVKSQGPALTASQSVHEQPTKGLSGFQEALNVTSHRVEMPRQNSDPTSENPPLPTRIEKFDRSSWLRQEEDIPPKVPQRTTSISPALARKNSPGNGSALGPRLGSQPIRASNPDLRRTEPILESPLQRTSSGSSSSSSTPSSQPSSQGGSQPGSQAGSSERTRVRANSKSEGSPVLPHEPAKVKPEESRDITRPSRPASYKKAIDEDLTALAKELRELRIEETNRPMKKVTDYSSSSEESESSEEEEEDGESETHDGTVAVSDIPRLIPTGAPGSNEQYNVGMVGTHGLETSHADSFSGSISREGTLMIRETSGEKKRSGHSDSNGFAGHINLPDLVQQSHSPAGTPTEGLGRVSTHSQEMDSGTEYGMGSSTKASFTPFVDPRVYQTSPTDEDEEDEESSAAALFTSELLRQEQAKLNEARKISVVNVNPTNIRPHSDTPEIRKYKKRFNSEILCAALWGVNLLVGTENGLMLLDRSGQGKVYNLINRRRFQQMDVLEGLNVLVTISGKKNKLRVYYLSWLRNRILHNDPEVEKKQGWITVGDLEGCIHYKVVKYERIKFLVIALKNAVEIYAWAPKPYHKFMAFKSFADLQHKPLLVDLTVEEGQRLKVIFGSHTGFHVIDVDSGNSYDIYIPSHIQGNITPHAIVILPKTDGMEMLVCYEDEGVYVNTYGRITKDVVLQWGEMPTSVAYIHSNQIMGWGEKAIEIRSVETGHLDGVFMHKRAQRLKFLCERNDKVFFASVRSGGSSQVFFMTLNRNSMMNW

Consider `Cc1nc(C2CCN(C(=O)c3ccc(OC(F)(F)F)cc3N)CC2)c2ncc(N3CCN(C)CC3)cc2n1` [BAY-693], for which the half-inhibitory concentration (IC50) in the assay with BT-474 is 27.6 µM (not active). In addition, the residual activity was 89% in assay [1]; 79% in assay [2]; 100% in [3]; 88% in assay [4]; 92% in assay [5]; 93% in assay [6]. The residual activity in assay [7] was 94%; in [8], 95%; in [9] it was 100%; in [10], 94%; in assay [11] it was 100%; in [12], 92%. The residual activity in assay [13], in assay [14] and in [15] was 100% each time.
On to `CN1CCN(c2cnc3c(C4CCN(C(=O)c5ccc(OC(F)(F)F)cc5N)CC4)ncnc3c2)CC1` [BAY-885], for which the 50% inhibitory concentration (IC50) in the assay with BT-474 is reported as > 30 µM (not active). Moreover, the residual activity in assay [1] was 93%; in assay [2], 90%; in assay [3], 100%; in assay [4], 84%; in assay [5], 95%; in [6], 85%. Also, the residual activity is 100% in [7]; 100% in [8]; 100% in [9]; 69% in [10]; 100% in assay [11]; 100% in assay [12]. The residual activity in assay [13], in assay [14] and in assay [15] was 100% in each case.
